Measurements published in ChEMBL document CHEMBL4229426, “Synthesis, antitumor activity evaluation and mechanistic study of novel hederacolchiside A1 derivatives bearing an aryl triazole moiety” (Bioorg Med Chem, 2018).

Assays:
Format in all cases: functional, cell-based
PC-3 = test: Antiproliferative activity against human PC3 cells after 48 hrs by MTT assay; conditions: PC-3, 48 h
A549 = test: Antiproliferative activity against human A549 cells after 48 hrs by MTT assay; conditions: A549, 48 h
HL-60 = test: Antiproliferative activity against human HL60 cells after 48 hrs by MTT assay; conditions: HL-60, 48 h
HepG2 = test: Antiproliferative activity against human HepG2 cells after 48 hrs by MTT assay; conditions: HepG2, 48 h
U-937 = test: Antiproliferative activity against human U937 cells after 48 hrs by MTT assay; conditions: U-937, 48 h
HT-29 = test: Antiproliferative activity against human HT-29 cells after 48 hrs by MTT assay; conditions: HT-29, 48 h

SMILES | IC50 (PC-3) [µM] | IC50 (A549) [µM] | IC50 (HL-60) [µM] | IC50 (HepG2) [µM] | IC50 (U-937) [µM] | IC50 (HT-29) [µM]
CC(=O)c1ccccc1-n1cc(CNC(=O)[C@]23CCC(C)(C)C[C@H]2C2=CC[C@@H]4[C@@]5(C)CC[C@H](O[C@@H]6OC[C@H](O[C@@H]7O[C@H](CO)[C@@H](O)[C@H](O)[C@H]7O)[C@H](O)[C@H]6O[C@@H]6O[C@@H](C)[C@H](O)[C@@H](O)[C@H]6O)C(C)(C)[C@@H]5CC[C@@]4(C)[C@]2(C)CC3)nn1 | 49.6 | 10.5 | 14.3 | 12.4 | 11.3 | 35.6
COc1ccccc1-n1cc(CNC(=O)[C@]23CCC(C)(C)C[C@H]2C2=CC[C@@H]4[C@@]5(C)CC[C@H](O[C@@H]6OC[C@H](O[C@@H]7O[C@H](CO)[C@@H](O)[C@H](O)[C@H]7O)[C@H](O)[C@H]6O[C@@H]6O[C@@H](C)[C@H](O)[C@@H](O)[C@H]6O)C(C)(C)[C@@H]5CC[C@@]4(C)[C@]2(C)CC3)nn1 | 38 | 6.99 | 12.2 | 17.7 | 7.73 | 44.4
O=c1[nH]cc(F)c(=O)[nH]1 [FLUOROURACIL] | 8.45 | 69.1 | 54.5 | 59.1 | 56.3 | 22.2
C[C@@H]1O[C@@H](O[C@H]2[C@H](O[C@H]3CC[C@]4(C)[C@H]5CC=C6[C@@H]7CC(C)(C)CC[C@]7(C(=O)NCc7cn(-c8ccccc8Br)nn7)CC[C@@]6(C)[C@]5(C)CC[C@H]4C3(C)C)OC[C@H](O[C@@H]3O[C@H](CO)[C@@H](O)[C@H](O)[C@H]3O)[C@@H]2O)[C@H](O)[C@H](O)[C@H]1O | 5.29 | 2.08 | 3.11 | 2.95 | 0.78 | 5.11
C[C@@H]1O[C@@H](O[C@H]2[C@H](O[C@H]3CC[C@]4(C)[C@H]5CC=C6[C@@H]7CC(C)(C)CC[C@]7(C(=O)NCc7cn(-c8cccnc8)nn7)CC[C@@]6(C)[C@]5(C)CC[C@H]4C3(C)C)OC[C@H](O[C@@H]3O[C@H](CO)[C@@H](O)[C@H](O)[C@H]3O)[C@@H]2O)[C@H](O)[C@H](O)[C@H]1O | 41.1 | 47.2 | 9.94 | 20.1 | 9.03 | 37.8
COc1cccc(-n2cc(CNC(=O)[C@]34CCC(C)(C)C[C@H]3C3=CC[C@@H]5[C@@]6(C)CC[C@H](O[C@@H]7OC[C@H](O[C@@H]8O[C@H](CO)[C@@H](O)[C@H](O)[C@H]8O)[C@H](O)[C@H]7O[C@@H]7O[C@@H](C)[C@H](O)[C@@H](O)[C@H]7O)C(C)(C)[C@@H]6CC[C@@]5(C)[C@]3(C)CC4)nn2)c1 | 0.23 | 2.45 | 5.66 | 1.66 | 5.9 | 3.48
C[C@@H]1O[C@@H](O[C@H]2[C@H](O[C@H]3CC[C@]4(C)[C@H]5CC=C6[C@@H]7CC(C)(C)CC[C@]7(C(=O)NCc7cn(-c8ccc(F)cc8)nn7)CC[C@@]6(C)[C@]5(C)CC[C@H]4C3(C)C)OC[C@H](O[C@@H]3O[C@H](CO)[C@@H](O)[C@H](O)[C@H]3O)[C@@H]2O)[C@H](O)[C@H](O)[C@H]1O | 5.78 | 1.02 | 1.8 | 3.18 | 0.48 | 2.32
C[C@@H]1O[C@@H](O[C@H]2[C@H](O[C@H]3CC[C@]4(C)[C@H]5CC=C6[C@@H]7CC(C)(C)CC[C@]7(C(=O)NCc7cn(-c8ccccc8Cl)nn7)CC[C@@]6(C)[C@]5(C)CC[C@H]4C3(C)C)OC[C@H](O[C@@H]3O[C@H](CO)[C@@H](O)[C@H](O)[C@H]3O)[C@@H]2O)[C@H](O)[C@H](O)[C@H]1O | 5.28 | 1.81 | 2.26 | 3.92 | 1.03 | 4.18
